Results published in ChEMBL document CHEMBL1201862, “PubChem BioAssay data set” (2004).
One block for each compound: values may come before it. The source made the active and inactive calls.

Key:
Protein Tat = Protein Tat (Human immunodeficiency virus type 1 group M subtype B (isolate HXB2)(HIV-1), UniProt P04608); type: functional;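 further: tat binding to TAR RNA read out by fluorescence polarization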
[1] = target: Luciferin 4-monooxygenase (Photinus pyralis, UniProt P08659); experiment: Counter Screen for Luciferase-based Assay Positives. [Related pubchem assays: 620, 618, 411 ]
Luciferin 4-monooxygenase, sequence (P08659 whole entry): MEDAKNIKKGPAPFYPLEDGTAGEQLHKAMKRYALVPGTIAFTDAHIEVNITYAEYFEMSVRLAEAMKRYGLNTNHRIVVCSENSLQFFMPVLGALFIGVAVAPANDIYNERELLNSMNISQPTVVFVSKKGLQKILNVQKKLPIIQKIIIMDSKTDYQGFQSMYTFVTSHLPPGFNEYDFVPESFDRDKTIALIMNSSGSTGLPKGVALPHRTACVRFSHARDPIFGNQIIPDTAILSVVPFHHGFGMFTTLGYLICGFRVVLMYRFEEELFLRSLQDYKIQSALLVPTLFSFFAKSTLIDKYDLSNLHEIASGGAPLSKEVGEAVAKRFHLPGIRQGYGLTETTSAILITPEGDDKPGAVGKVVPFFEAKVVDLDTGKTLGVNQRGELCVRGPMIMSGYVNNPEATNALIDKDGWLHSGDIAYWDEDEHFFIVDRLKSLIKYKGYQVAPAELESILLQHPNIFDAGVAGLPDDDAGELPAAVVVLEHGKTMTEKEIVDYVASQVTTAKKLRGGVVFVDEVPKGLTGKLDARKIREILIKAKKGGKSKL

HT-1080 = experiment: cytotoxicity in HT1080 fibrosarcoma cells, cell-based, fluorescence readout (AID 620); type: functional; settings: Homo sapiens
[2] = Luminescence-based cell-based high throughput dose response assay to identify activators of the DAF-12 from the parasite S. stercoralis (ssDAF-12).; type: functional
[3] = target: T1, Oxysterols receptor LXR-beta (Homo sapiens, UniProt P55055); experiment: LXR agonists, Gal4 luciferase reporter, dose response, counter-screen for ssDAF-12 agonist project, cell-based, luminescence, HEK293, S. stercoralis campaign (AID 720737); type: functional; settings: read-out: IC50 (the source's name)
T1 sequence (P55055 whole entry): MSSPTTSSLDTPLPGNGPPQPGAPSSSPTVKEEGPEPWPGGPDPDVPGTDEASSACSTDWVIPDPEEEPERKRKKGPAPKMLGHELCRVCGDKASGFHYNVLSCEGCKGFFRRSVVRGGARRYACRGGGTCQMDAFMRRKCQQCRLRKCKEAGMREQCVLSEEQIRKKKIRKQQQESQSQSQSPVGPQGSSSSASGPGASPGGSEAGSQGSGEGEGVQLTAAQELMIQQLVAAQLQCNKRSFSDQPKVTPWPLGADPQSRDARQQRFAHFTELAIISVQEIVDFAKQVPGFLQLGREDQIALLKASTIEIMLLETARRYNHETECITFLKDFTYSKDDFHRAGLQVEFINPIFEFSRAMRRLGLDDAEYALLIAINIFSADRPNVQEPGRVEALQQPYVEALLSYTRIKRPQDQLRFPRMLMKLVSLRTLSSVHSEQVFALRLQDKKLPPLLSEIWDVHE

[4] = target: T1, Oxysterols receptor LXR-beta; type: functional, cell-based
[5] = target: T2, Histone-lysine N-methyltransferase NSD2 (Homo sapiens, UniProt O96028); type: biochemical
T2 sequence (O96028 whole entry): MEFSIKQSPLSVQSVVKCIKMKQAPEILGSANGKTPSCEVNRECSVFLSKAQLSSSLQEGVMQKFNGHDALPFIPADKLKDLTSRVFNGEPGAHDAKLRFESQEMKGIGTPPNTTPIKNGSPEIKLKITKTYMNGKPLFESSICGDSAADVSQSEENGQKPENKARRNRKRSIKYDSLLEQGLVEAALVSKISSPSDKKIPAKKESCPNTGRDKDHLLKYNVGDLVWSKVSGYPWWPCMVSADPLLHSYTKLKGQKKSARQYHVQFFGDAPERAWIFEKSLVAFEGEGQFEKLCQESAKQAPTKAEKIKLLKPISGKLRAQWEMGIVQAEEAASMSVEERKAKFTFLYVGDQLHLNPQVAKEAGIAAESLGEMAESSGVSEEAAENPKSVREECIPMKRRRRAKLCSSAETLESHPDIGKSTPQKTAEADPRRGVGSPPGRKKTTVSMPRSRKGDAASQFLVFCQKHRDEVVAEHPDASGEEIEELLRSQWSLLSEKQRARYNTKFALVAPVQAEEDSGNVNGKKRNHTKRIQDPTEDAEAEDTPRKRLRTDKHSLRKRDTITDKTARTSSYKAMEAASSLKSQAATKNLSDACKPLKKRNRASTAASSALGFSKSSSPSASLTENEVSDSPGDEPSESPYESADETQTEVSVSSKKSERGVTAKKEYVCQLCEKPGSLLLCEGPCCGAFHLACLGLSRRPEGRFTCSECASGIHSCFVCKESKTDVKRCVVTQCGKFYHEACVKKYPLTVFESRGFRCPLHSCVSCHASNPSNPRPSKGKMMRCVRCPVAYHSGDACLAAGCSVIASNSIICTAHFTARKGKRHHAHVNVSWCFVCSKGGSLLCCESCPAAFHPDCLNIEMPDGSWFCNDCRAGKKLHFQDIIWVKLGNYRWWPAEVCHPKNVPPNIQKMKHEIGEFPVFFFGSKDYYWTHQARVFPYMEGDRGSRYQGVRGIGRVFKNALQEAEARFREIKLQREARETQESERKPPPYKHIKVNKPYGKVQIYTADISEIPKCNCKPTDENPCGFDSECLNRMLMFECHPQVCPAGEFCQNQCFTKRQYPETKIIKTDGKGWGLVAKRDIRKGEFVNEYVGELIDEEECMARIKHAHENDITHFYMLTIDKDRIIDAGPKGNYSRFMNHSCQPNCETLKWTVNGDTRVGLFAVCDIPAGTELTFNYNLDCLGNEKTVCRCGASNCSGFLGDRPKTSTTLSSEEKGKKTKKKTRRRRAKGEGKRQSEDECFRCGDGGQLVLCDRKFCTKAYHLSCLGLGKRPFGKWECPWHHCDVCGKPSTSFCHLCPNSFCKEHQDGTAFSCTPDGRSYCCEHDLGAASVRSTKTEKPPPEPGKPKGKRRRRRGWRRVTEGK

[6] = P. falciparum 3D7-ScDHODH growth inhibitors, dose response, SYBR Green, dry powder samples (AID 1159570); type: functional, cell-based;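 further: parasite growth measured after 72 hours of compound exposure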
[7] = HepG2 cell cytotoxicity, dose response, cytotoxicity control, plate reader, dry powder samples (AID 1159569); type: functional, cell-based;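 further: inhibitor potency with signal falling toward the positive control level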
[8] = P. falciparum Dd2 growth inhibitors, dose response, SYBR Green, cherry-picked samples (AID 1159567); type: functional, cell-based
[9] = P. falciparum Dd2 growth inhibitors, dose response, SYBR Green, dry powder samples (AID 1159566); type: functional, cell-based;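 further: potency for growth inhibition with lower SYBR green DNA signal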
[10] = HepG2 cell cytotoxicity, dose response, cytotoxicity control, cherry-picked samples (AID 1159577); type: functional, cell-based
[11] = P. falciparum ATP4 D1247Y mutant growth inhibitors, dose response, NITD609-resistant line, SYBR Green, dry powder (AID 1159571); type: functional, cell-based;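 further: parasites synchronized at ring stage by sorbitol before testing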

Protein Tat, sequence (P04608 whole entry): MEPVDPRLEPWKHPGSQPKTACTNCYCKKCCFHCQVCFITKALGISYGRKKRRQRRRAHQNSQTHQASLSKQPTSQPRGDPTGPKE

IC50 (Protein Tat): > 100 µM (active)
Structure (SMILES): CCCOC(=O)Nc1sc2c(c1C(=O)OCC)CCC2

Structure (SMILES): CCc1ccc2oc(-c3cccc(N)c3)nc2c1
EC50 [1]: 0.37 µM (active)
EC50 (HT-1080): > 50 µM (not active)
IC50 [2]: > 67.5 µM (inactive)
EC50 [3]: > 67.5 µM (inactive)
EC50 [4]: > 67.6 µM (inactive)

Structure (SMILES): Cc1ccc(C(=O)NC(=S)c2c(C)cc3ccccn23)cc1
AC50 [5]: 11 µM (active)
IC50 [2]: > 67.5 µM (inactive)
EC50 [3]: > 67.5 µM (inactive)

Structure (SMILES): COc1ccccc1C#Cc1ccc([C@@H]2[C@@H](C#N)N(C(=O)C3CCCC3)[C@H]2CO)cc1
AC50 [6]: 1.92 µM (active)
AC50 [7]: 25.2 µM (active)
AC50 [8]: 2.9 µM (active)
AC50 [9]: 1.22 µM (active)
AC50 [10]: > 39 µM (inactive)
AC50 [11]: 1.39 µM (active)
